# Data published in patent US11466010B2, “Toll-like receptor 8 (TLR8) specific antagonists and methods of making and uses thereof” (The Regents of the University of Colorado, a body corporate, priority 2017, dated 2022).
# Tested on: TLR8 downstream proteins (p65, p-IRAK4, TRAF3, TRIF, IRF3)
# Test: Immunoblotting of TLR downstream signaling proteins in THP-1 cells treated with R848
# Type: cell-based, human
# Procedure: Immunoblotting: THP-1 cells were seeded in 6-well plates with a density of 2×10^6 cells/well in RPMI 1640 medium supplemented with 10% FBS, 100 U/mL penicillin, 100 μg/mL streptomycin (PenStrep), 2 mM L-glutamine, and 0.05 mM 2-mercaptoethanol. THP-1 cells were treated with phorbol-12-myristate-13-acetate (PMA) (100 ng/mL) and incubated in humidified incubators containing 5% CO2 at 37° C. for 24 h. […] After incubation of 2 h, THP-1 cells were collected, nuclear protein fraction was extracted using NE-PER Nuclear and Cytoplasmic Extraction kit (Thermo Fisher Scientific). BCA assay was then used to determine protein concentration. Protein samples were loaded and run in 10% Tris-glycine SDS-PAGE, and then transferred onto a nitro-cellulose membrane (BioRad) using electroblotting. P65 (CST; 8242) (1:1000) was then used as primary antibody, and peroxidase-conjugated AffiniPure Goat Anti-Rabbit IgG (H+L) antibody (Jackson Immuno Research; 111-035-144) (1:10000) as secondary antibody, then blots were visualized using Thermo SuperSignal West Pico kit (Thermo Fisher Scientific). Lamin A/C (CST; 2032) were used as internal controls for nuclear fractions.
# Next, the inventors carried out on-target validation for CU-CPT9a. […] By contrast, the expression of TRIF and IRF3 (cytoplasmic and nuclear) were only responsive to TLR4 and TLR3, independent of TLR8.
structure (smiles),measurement,setting,value
"COc1ccc2c(-c3ccc(O)c(C)c3)ccnc2c1 [Compound 11a, 2-Methyl-4-(7-methoxyl-4-quinolinyl)-phenol]",nuclear NF-κB,500 nM,significant reduction
same,"R848-induced elevation of downstream protein levels (p65, p-IRAK4, TRAF3)","dose-dependent, 0, 5, 50, 500 nM, 2 h",reversed
